Experimental data from article PMC8000592, “Discovery and Optimization of Selective Inhibitors of Meprin α (Part I)” (Pharmaceuticals, 2021).
Where two headings read alike, the source gives them in different places. Each block holds one compound with its values, some of them ahead of it.

What was measured:
meprin α = molecular target: T1, meprin α (Homo sapiens, UniProt Q16819); test: Meprin α assay, fluorogenic substrate (Mca)-YVADAPK-(K-ε-Dnp), 384 and 1536 well plate formats; format: biochemical; details: for selectivity for meprin α: versus meprin β, in words
T1 sequence (Q16819 66-593 limits assumed): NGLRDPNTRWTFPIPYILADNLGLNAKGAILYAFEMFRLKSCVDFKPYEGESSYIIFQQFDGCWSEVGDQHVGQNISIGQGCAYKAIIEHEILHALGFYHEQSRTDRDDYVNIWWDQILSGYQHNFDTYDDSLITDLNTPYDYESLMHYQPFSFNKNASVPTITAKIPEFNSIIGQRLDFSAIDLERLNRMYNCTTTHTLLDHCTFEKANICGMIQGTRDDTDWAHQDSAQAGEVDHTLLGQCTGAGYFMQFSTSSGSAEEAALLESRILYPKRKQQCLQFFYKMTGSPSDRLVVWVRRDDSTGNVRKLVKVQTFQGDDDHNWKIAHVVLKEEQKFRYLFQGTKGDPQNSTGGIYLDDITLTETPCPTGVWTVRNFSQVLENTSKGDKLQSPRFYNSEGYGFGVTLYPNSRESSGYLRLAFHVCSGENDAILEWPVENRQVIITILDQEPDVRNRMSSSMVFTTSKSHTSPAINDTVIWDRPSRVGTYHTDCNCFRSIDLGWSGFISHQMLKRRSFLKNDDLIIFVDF
Description: The meprin α and meprin β assays, which utilize the substrates (Mca)-YVADAPK-(K-ε-Dnp) and (Mca)-EDEDED-(K-ε-Dnp), respectively, have been described previously. To enable an ultra-high-throughput screening (uHTS) campaign, we proceeded to miniaturize both assays to 1536 well plate format (wpf). First, we recapitulated the assays in 1536 well plate using reagents at the same concentrations as in 384 well plate format assays by scaling the volume down by the factor of 2.5.
Both assays followed the same general protocol. A 5 µL measure of 2 × enzyme solution (2.6 and 0.1 nM for meprin α and meprin β, respectively) in assay buffer (50 mM Hepes, 0.01% Brij-35, pH 7.5) was added to solid bottom black 384 low volume plates (Nunc, cat# 264705). Next, 75 nL of test compounds or pharmacological control (actinonin or NFF449) were added to corresponding wells using a 384-pin tool device (V&P Scientific, San Diego, CA, USA). After 30 min incubation at RT, the reactions were started by addition of 5 µL of 2 × solutions of substrates (20 µM, mepin α substrate Mca-YVADAPK-K(Dnp) or meprin β substrate Mca-EDEDED-K(Dnp)). Reactions were incubated at RT for 1 h, after which the fluorescence was measured using the Synergy H4 multimode microplate reader (Biotek Instruments) (λexcitation = 324 nm, λemission = 390 nm).
Both assays followed the same general protocol. A 2 µL portion of 2 × enzyme solution (1.3 and 0.0125 nM for meprin α and meprin β, respectively) in assay buffer (50 mM Hepes, 0.01% Brij-35, pH 7.5) was added to solid bottom black 1536 low volume plates (Corning cat# 7261). Next, 30 nL of test compounds or pharmacological control (actinonin or NFF449) was added to corresponding wells using a 1536 pin tool device (V&P Scientific, San Diego). After 30 min incubation at RT, the reactions were started by addition of 2 µL of 2x solutions of substrates (20 µM, meprin α substrate Mca-YVADAPK-K(Dnp) or meprin β substrate Mca-EDEDED-K(Dnp)). Reactions were incubated at RT for 1 h, after which the fluorescence was measured using the Viewlux multimode microplate reader (Perkin Elmer) (λexcitation = 324 nm, λemission = 390 nm).
The miniaturized 1536-well plate format meprin α and meprin β assays were used to screen a collection of approximately 650,000 compounds (The Scripps Research library, La Jolla, CA, USA) on the automated Kalypsys/GNF platform at The Scripps Research Molecular Screening Center (SRMSC, Jupiter, FL, USA: http://hts.florida.scripps.edu/). Both uHTS campaigns were run separately but in a similar manner. Briefly, the first step was the primary screen of all test compounds as singlicates against the meprin α and meprin β target at a final concentration of 7.0 μM. Next, compounds selected as primary hits were cherry-picked and retested in triplicate against the primary screen target and its antitarget (meprin α for the meprin β screening effort, and vice versa) at a same final concentration of 7.0 μM. The additional counter screen assays against related metzincins (MMP-8, MMP-14, and ADAM10) were performed in triplicate at a final concentration of 7.0 μM. The final step was the titration of selected hits as 10-point, 1:3 serial dilutions in both the target and antitarget assay, starting at a final nominal concentration of 17 μM. […] Wells treated with DMSO only were used as negative controls and 0% inhibition reference. […] All data generated during this effort were uploaded to the SRMSC’s institutional screening database (Assay Explorer, Symyx). Sample to background (S/B) ratios, as well as Z and Z’ values, were calculated on a per plate basis as described 14. Curve fitting and resulting IC50 determinations were performed as previously reported.

ADAM17 = molecular target: T2, ADAM17 (Homo sapiens, UniProt P78536); test: ADAM17 assay (Mca-KPLGL-Dpa-AR-NH2 substrate); format: biochemical; details: triplicate, 10-point, 3:1 serial dilution, highest concentration 17.4 µM
T2 construct: purchased R&D Systems 930-ADB
Experimental: We were able to procure 64 out of 87 selected compounds from commercial sources, which we tested in triplicate, 10-point, 3:1 serial dilution concentration response format starting at the highest concentration of 17.4 µM against both meprin α and meprin β. In addition to meprins, we also tested 64 hits against related metzincins (MMP-2, MMP-3, MMP-8, MMP-9, MMP-10, MMP-14, ADAM10, and ADAM17) to ascertain general nonpromiscuity against zinc-dependent proteases.
Both assays followed the same general protocol. A 2.5 µL portion of 2 × enzyme solution (20 nM) in assay buffer (10 mM HEPES, 0.001% Brij-35, pH 7.5) was added to solid bottom black 1536 plates (Greiner, cat# 789075). Next, test compounds and pharmacological controls were added to corresponding wells using a 1536 pin tool device (V&P Scientific, San Diego, CA, USA). After 30 min incubation at RT, the reactions were started by addition of 2.5 µL of 2x solutions of substrate (R&D Systems cat#: ES010, Mca-KPLGL-Dpa-AR-NH2, 20 µM). Reactions were incubated at RT for 2 h, after which the fluorescence was measured using a PerkinElmer Viewlux multimode microplate imager (λexcitation = 324 nm, λemission = 390 nm). Final concentration of test compounds in assays was 7.0 µM.

MMP and ADAM = details: cited from earlier work
meprin β = details: cited from earlier work
[1] = triplicate, 10-point, 3:1 serial dilution, highest concentration 17.4 µM, read-out: Meprin α IC50

T2 sequence (P78536 215-824): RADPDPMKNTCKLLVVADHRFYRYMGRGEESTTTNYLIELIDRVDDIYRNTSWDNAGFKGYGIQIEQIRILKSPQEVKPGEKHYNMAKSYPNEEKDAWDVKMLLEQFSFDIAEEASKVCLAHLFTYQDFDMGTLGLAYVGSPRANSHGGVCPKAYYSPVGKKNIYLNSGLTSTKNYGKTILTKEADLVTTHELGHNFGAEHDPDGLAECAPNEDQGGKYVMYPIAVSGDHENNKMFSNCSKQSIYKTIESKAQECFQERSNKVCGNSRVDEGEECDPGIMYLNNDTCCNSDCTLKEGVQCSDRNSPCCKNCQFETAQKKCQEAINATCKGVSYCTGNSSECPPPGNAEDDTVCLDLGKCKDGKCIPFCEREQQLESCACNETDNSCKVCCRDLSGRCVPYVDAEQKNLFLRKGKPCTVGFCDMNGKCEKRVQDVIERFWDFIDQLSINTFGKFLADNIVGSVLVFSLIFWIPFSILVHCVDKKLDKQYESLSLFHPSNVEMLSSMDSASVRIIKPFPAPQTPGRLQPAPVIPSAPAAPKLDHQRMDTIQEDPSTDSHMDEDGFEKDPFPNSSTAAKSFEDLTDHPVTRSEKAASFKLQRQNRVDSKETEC

Compound: O=C(CSc1nnc(NC(=O)c2ccccc2)s1)NO [Compound 19847]
- IC50 (meprin α; [1]): 0.892 µM
- IC50 (ADAM17): > 17 µM

Compound: O=C(CSc1nnc(NC(=O)COc2ccccc2)s1)NO [Compound 19848]
- IC50 (meprin α; [1]): 0.335 µM
- IC50 (ADAM17): > 17 µM

Compound: COc1cc(OC)cc(C(=O)CNc2nnc(SCC(=O)NO)s2)c1 [Compound 19849]
- IC50 (meprin α; [1]): 0.218 µM
- IC50 (ADAM17): 8.01 µM

Compound: COc1ccc(-n2c(CSc3ncccn3)nnc2SCC(=O)NO)cc1 [Compound 19855]
- selectivity for meprin α (meprin α): show selectivity for meprin α
- IC50 (ADAM17): > 17 µM

Compound: O=C(CCN(Cc1cccs1)S(=O)(=O)c1ccc([N+](=O)[O-])cc1)NO [Compound 162799]
- selectivity against meprin β and other tested metzincins (meprin α): > 30 fold
- Meprin α IC50 (meprin α; triplicate, 10-point, 3:1 serial dilution, highest concentration 17.4 µM): sub-micromolar
- IC50 (meprin α; [1]): 0.564 µM
- selectivity for meprin α (meprin α): show selectivity for meprin α
- IC50 (ADAM17): > 17 µM

Compound: O=C(CCN(Cc1ccccc1)S(=O)(=O)c1ccc(F)cc1)NO [Compound 162808]
- selectivity against meprin β and other tested metzincins (meprin α): > 30 fold
- Selectivity Fold (meprin α; meprin α versus meprin β): 38 fold
- IC50 (meprin α; [1]): 0.446 µM
- selectivity for meprin α (meprin α): show selectivity for meprin α
- IC50 (ADAM17): > 17 µM

Compound: O=C(COc1ccc(Cl)cc1Cl)NO [Compound 1596857]
- IC50 (meprin α): 1.18 µM
- IC50 (ADAM17): > 17 µM

- IC50 (meprin α; Meprin α 384 wpf, read-out: IC50): > 100 µM
- IC50 (meprin α; Meprin α 1536 wpf, read-out: IC50): > 100 µM
Compound: O=C(Nc1cc(C(=O)Nc2ccc(S(=O)(=O)O)cc2S(=O)(=O)O)cc(C(=O)Nc2ccc(S(=O)(=O)O)cc2S(=O)(=O)O)c1)Nc1cc(C(=O)Nc2ccc(S(=O)(=O)O)cc2S(=O)(=O)O)cc(C(=O)Nc2ccc(S(=O)(=O)O)cc2S(=O)(=O)O)c1 [NFF449]
- selectivity against adamalysins and matrixins (MMP and ADAM): good selectivity
- Ki (meprin β): 0.022 µM

Compound: O=[N+]([O-])c1ccc(CN2CCC3(CCc4ccccc43)CC2)o1 [SR207820]
- IC50 (meprin α; [1]): > 17 µM
- IC50 (ADAM17): > 17 µM

Compound: O=C(c1ccc(C(=O)O)c([N+](=O)[O-])c1)c1ccc(C(=O)O)c([N+](=O)[O-])c1 [SR355996]
- IC50 (meprin α; [1]): > 17 µM
- IC50 (ADAM17): > 17 µM

Compound: CSc1nnc2c(n1)OC(c1ccc([N+](=O)[O-])o1)Nc1ccccc1-2 (stereo not drawn) [SR412882]
- IC50 (meprin α; [1]): > 17 µM
- IC50 (ADAM17): 17 µM
